Assay results as given in article PMC10208580 (Science Advances, 2023).
Ends that are not written are not given here.

Key:
rabbit RyR1 = test: Cryo-EM of RyR1 incubated with calcin variant (density for peptide); assay type: binding; conditions: activating conditions (Ca2+, ATP, caffeine, CaM1234), incubation up to an hour
Protocol: For activating conditions (datasets 3 to 5), RyR1 samples were diluted to contain 30 μM buffered free Ca^2+, 80 μM CaM1234, 5 mM caffeine, and 8 mM (dataset 3) or 5 mM (datasets 4 and 5) ATP. Purified IpCa (powder) was first diluted to 1 mM in buffer S5 without EGTA or Ca^2+ and then added to the RyR1 samples to a final concentration of 30 to 80 μM. Samples were incubated in the presence of IpCa (including pT26 and T26E) up to an hour before plunging. RyR1 particles from each condition were assessed by negative-stain EM. Four microliters of purified RyR1 diluted to 0.01 to 0.05 mg/ml was applied to glow-discharged 400-mesh copper grids (Electron Microscopy Sciences) and stained with 0.7% (w/v %) uranyl formate. Negatively stained EM grids were imaged on a Tecnai G2 Spirit microscope (Thermo Fisher Scientific) operated at 120 kV or a Talos with a Ceta camera operated at 120 kV.
For cryo-EM, RyR1 samples with a final concentration of 10 to 12 mg/ml were used. The samples were applied to holey carbon R2/2 grids (Quantifoil). Grids were blotted for 3 s with −5 to −15 blot force applied and subsequently flash-frozen with liquid ethane using a Vitrobot IV (Thermo Fisher Scientific). Grids were transferred to a Titan Krios G2 electron microscope (Thermo Fisher Scientific) operating at 300 kV. […]

RyR1 = target: T1, RyR1 (Oryctolagus cuniculus, UniProt P11716); test: [3H]ryanodine binding to skeletal muscle heavy SR vesicles; assay type: biochemical, rabbit; conditions: skeletal muscle heavy SR vesicles, no phosphatase inhibitors
T1 construct: from tissue; host or cells: rabbit skeletal muscle heavy SR vesicles
T1 sequence (P11716 whole entry): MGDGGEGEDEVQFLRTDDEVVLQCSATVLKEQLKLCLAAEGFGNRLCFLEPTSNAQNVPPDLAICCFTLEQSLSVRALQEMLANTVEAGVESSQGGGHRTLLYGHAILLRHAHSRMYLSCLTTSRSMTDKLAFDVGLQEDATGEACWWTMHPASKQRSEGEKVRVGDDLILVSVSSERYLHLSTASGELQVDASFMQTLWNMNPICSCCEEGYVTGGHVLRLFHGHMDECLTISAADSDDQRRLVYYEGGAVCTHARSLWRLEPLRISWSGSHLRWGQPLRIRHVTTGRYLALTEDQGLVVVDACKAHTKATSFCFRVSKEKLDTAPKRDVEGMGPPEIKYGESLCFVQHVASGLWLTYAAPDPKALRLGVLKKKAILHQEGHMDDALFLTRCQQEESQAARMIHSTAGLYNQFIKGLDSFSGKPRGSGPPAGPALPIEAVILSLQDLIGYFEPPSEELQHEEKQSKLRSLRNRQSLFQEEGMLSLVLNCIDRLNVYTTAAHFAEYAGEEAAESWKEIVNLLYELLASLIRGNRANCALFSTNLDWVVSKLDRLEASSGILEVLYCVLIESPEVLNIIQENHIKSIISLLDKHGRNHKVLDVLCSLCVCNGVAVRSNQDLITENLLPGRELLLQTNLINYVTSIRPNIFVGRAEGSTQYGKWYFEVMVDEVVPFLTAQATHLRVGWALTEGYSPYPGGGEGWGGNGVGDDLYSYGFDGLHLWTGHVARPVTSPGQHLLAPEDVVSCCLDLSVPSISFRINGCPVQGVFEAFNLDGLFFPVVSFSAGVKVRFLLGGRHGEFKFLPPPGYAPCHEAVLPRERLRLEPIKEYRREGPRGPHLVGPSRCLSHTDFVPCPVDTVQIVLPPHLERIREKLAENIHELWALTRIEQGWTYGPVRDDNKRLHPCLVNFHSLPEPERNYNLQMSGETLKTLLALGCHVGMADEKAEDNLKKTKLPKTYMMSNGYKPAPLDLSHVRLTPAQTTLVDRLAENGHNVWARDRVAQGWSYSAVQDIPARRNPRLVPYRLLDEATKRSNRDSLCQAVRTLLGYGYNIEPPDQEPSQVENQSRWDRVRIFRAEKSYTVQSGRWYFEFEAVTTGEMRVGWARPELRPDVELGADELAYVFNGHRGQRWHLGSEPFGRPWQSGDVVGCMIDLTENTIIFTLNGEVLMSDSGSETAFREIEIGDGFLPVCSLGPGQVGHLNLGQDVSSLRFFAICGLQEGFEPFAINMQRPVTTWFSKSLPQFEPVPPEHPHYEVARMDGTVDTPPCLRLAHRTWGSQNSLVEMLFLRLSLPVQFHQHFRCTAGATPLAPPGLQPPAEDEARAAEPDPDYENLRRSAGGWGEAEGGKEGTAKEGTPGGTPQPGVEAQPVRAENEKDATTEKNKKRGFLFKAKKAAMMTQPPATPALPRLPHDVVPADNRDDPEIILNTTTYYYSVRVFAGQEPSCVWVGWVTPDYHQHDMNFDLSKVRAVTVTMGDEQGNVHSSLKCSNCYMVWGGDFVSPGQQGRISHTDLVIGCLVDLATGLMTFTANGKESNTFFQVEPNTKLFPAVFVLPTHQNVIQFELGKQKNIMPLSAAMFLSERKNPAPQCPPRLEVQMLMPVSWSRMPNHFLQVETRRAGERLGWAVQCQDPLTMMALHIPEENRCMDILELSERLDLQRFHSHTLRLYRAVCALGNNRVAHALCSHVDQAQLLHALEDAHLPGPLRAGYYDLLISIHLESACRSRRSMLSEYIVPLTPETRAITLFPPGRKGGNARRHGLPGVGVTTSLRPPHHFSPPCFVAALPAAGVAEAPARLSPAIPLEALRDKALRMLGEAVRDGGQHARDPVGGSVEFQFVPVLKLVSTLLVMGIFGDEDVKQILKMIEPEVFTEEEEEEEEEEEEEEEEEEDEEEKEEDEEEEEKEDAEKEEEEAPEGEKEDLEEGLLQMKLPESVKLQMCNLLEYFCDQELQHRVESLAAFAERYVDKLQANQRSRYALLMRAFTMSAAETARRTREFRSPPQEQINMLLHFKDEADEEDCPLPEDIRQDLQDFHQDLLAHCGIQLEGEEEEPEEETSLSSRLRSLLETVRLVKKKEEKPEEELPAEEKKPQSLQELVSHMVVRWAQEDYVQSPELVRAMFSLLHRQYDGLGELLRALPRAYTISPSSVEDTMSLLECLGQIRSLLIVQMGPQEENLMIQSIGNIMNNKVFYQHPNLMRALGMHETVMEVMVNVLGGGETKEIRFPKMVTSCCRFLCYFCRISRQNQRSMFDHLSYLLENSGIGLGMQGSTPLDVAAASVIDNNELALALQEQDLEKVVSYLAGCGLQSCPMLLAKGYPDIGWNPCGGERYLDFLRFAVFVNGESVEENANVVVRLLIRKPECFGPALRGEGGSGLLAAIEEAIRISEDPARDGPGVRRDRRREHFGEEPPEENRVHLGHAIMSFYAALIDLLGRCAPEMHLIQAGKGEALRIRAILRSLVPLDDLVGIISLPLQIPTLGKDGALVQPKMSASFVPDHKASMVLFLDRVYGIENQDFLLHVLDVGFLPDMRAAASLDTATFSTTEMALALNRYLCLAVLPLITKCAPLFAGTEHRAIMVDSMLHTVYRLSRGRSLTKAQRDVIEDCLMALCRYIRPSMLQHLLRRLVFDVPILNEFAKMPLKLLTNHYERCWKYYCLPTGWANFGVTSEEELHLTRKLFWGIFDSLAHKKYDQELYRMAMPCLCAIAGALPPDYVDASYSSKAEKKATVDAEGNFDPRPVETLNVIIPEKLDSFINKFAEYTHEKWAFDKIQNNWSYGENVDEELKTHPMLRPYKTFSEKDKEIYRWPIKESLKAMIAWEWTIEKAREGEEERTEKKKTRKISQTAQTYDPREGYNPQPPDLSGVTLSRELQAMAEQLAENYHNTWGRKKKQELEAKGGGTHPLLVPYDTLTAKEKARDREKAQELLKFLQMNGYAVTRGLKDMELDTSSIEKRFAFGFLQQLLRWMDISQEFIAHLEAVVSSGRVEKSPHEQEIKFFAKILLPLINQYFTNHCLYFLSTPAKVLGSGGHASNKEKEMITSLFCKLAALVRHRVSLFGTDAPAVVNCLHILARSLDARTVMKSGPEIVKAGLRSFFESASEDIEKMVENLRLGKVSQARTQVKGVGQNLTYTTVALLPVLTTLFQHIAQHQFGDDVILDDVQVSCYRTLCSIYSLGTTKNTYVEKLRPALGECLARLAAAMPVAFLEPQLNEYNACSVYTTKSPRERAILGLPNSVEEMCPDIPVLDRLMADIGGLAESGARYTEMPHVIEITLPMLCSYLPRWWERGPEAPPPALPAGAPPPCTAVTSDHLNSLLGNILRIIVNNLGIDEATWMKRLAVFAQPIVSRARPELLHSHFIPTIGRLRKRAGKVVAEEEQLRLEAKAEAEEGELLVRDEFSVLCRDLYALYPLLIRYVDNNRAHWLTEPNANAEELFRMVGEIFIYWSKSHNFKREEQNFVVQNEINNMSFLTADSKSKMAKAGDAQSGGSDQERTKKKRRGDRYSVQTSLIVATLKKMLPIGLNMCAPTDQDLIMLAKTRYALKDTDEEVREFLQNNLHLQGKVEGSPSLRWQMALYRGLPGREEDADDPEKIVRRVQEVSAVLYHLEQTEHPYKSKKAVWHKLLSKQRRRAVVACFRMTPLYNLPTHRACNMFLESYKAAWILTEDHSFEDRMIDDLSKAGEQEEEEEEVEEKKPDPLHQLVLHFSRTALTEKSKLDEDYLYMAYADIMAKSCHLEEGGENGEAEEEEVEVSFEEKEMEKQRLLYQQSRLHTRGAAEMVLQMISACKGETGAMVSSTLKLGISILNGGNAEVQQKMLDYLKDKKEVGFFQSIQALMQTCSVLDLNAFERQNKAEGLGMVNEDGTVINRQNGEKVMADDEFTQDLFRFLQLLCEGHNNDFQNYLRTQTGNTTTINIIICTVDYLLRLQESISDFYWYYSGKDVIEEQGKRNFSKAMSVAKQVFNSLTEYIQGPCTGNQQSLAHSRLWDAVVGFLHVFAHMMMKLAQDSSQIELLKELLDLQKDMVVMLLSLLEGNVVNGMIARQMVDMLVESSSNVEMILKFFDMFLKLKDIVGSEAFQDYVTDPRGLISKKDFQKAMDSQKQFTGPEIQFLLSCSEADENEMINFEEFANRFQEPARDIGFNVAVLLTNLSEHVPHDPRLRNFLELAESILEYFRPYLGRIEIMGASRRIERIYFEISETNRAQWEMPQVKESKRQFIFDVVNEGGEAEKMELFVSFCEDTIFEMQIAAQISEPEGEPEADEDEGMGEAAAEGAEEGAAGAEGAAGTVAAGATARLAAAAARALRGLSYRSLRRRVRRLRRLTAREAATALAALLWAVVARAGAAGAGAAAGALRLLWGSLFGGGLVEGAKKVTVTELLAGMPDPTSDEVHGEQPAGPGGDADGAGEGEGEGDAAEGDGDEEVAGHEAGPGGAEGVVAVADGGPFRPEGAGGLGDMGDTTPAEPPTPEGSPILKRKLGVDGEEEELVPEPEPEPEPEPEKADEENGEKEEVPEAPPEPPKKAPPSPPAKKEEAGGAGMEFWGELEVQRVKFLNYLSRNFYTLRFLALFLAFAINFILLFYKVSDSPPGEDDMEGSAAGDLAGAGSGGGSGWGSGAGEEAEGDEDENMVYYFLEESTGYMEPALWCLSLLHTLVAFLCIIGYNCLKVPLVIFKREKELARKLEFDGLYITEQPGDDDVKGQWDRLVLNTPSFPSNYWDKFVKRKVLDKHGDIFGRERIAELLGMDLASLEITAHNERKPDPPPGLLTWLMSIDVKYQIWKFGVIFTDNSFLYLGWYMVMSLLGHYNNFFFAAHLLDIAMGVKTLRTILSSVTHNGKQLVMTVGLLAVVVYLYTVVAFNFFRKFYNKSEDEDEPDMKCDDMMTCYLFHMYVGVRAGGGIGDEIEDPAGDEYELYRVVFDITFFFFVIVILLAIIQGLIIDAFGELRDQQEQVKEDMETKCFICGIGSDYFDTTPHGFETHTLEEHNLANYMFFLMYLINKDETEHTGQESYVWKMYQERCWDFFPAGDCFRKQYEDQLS

RyRs = conditions: higher concentrations of ryanodine; cited from earlier work
From the text: Subconducting states have also been observed in the presence of low concentrations of ryanodine. At higher concentrations, however, addition of ryanodine results in full block ([25]). […] A previous cryo-EM study has resolved density for ryanodine in the pore-forming region, inside the inner vestibule below Gln^4933 ([15]). As this site is >13 Å away from IpCa, ryanodine and IpCa can bind to RyRs simultaneously (fig. S12). Whereas IpCa causes ...

Substance	Cryo-EM density for the peptide bound to RyR1 (rabbit RyR1)	Effect on [3H]ryanodine binding (RyR1)	Effect on channel conductance at higher concentrations (RyRs)
IpCa-T26E: IpCa variant containing a phosphomimetic (T26E) (GDCLPHLKRCKADNDCCGKKCKRRGENAEKRCR; disulfide (positions not given here); not fully specified; ends not checked; UniProt P59868 1-33, looked up, variant T26E)	failed to show any density for IpCa	completely inert	–
ryanodine	–	–	full block
